For one assay, the target named is T1, human CYP11B2 (Homo sapiens, UniProt P19099).
T1 construct: expressed in transfected cells; host or cells: V79 cells (clone V79-hCYP11B2-CLE9)
T1 sequence (P19099 25-503): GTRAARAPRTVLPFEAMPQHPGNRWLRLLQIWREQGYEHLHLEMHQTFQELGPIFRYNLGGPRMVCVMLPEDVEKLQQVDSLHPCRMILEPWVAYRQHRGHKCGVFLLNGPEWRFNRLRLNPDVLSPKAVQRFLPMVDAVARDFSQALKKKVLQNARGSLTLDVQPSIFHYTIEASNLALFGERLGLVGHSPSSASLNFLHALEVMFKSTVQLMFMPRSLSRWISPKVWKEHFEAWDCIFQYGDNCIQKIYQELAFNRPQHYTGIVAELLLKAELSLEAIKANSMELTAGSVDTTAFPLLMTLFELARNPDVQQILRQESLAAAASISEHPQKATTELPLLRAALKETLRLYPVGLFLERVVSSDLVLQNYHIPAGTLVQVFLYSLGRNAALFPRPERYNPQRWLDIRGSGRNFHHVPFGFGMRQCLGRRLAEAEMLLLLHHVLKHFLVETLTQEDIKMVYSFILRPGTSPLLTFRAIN
The assay is described as follows: V79-Human-CYP11B2 cell assay (aldosterone formation, HTRF). It counts as cell-based. Conditions: V79 cells stably expressing human CYP11B2; substrate 125 nM 11-deoxycorticosterone; 3 hours. Here is the method:
(§1) Methods for V79-Human-CYP11B2 and V79-Human-CYP11B1 Assays: V79 cell lines stably expressing the either the human CYP11B2 or the human CYP11B1 enzyme were generated using a standard transfection protocol. V79 cells were transfected with plasmids pTriEx3-Hygro-hCyp11B2 or pTriEx3-Hygro-hCyp11B1 using Lipofectamine2000 reagent. V79 cells that stably express the human CYP11B2 or human CYP11B1 enzyme were selected for and maintained in DMEM supplemented with 10% FBS and 400 μg/mL hygromycin for ˜2 weeks. Single cell clones were generated by […] in DMEM supplemented with 10% FBS and 400 μg/mL hygromycin until single colonies were obtained. Clones V79-hCYP11B2-CLE9 and V79-hCYP11B1-8C7, were determined to produce the most aldosterone and cortisol, respectively, and were selected for inhibitor screening. For testing of inhibitors, cells were harvested at 80% confluency with 0.5% Trypsan-EDTA, washed once in PBS, and reconstituted in DMEM 0.1% BSA media at a cell concentration of 400,000 cells/mL. 25 μl of cells were added to a 384 well tissue culture treated plate and mixed with 0.25 μl of inhibitor or DMSO (1% final DMSO concentration) for 1 hour at 37° C., 5% CO2. After pre-incubation with inhibitor, the reaction was initiated by adding 5 μl of substrate (final concentration of 125 nM 11-deoxycorticosterone for the CYP11B2 assay or 250 nM 11-deoxycortisol for the CYP11B1 assay). The reaction was carried out for 3 hours at 37° C., 5% CO2 and was stopped by harvesting the supernatants. The amount of product in the supernatant (aldosterone for CYP11B2 assay and cortisol for the CYP11B1 assay) was measured using HTRF-based assay kit (Aldosterone HTRF-CisBio#64ALDPEB, Cortisol HTRF-CisBio #63IDC002-CORT). IC50's for the inhibitor were determined by plotting the amount of product formed against the concentration of inhibitor using sigmoidal dose-response curve (variable slope) fit in GraphPad.

Another assay addresses T2, human CYP11B1 (Homo sapiens, UniProt P15538).
T2 construct: expressed in transfected cells; host or cells: V79 cells (clone V79-hCYP11B1-8C7)
T2 sequence (P15538 25-503): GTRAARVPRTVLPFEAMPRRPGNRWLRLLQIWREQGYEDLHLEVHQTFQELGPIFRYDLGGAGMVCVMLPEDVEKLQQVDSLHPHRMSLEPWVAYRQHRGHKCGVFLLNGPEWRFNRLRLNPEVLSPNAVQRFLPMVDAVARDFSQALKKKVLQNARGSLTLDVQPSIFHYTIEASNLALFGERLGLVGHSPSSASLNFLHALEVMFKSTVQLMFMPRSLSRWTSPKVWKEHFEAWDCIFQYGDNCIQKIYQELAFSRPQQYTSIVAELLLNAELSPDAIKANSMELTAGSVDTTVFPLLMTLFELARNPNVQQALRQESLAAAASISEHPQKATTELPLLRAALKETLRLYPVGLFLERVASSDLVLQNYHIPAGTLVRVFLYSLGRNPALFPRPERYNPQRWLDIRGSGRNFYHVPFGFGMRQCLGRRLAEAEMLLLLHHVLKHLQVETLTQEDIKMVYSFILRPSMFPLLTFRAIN
Kind of assay: V79-Human-CYP11B1 cell assay (cortisol formation, HTRF). The class given is cell-based. Conditions: V79 cells stably expressing human CYP11B1; substrate 250 nM 11-deoxycortisol; 3 hours. Here is the method:
as §1, with “Clones V79-hCYP11B2-CLE9 and V79-hCYP11B1-8C7, were determined to produce the most aldosterone and cortisol, respectively, and were selected for inhibitor screening.” left out, “After pre-incubation with inhibitor, the reaction was initiated by adding 5 μl of substrate (final concentration of 125 nM 11-deoxycorticosterone for the CYP11B2 assay or 250 nM 11-deoxycortisol for the CYP11B1 assay).” left out
In general terms: TR-FRET usually uses a lanthanide donor and a delayed reading to cut background.

`Cn1c(-c2cccnc2)nc2cc(F)ccc21` [Example 4, 5-fluoro-1-methyl-2-(pyridin-3-yl)-1H-benzimidazole]: the half-maximal inhibitory concentration (IC50) – broadly, the concentration that gives 50% inhibition – came out at 26 nM against human CYP11B2 and 4080 nM at human CYP11B1.

`Fc1ccc2nc(-c3cncc4ccccc34)n(C3CC3)c2c1` [Example 16, 4-(1-cyclopropyl-6-fluoro-1H-benzimidazol-2-yl)isoquinoline]: the IC50 against human CYP11B2 worked out at 0.1 nM; on human CYP11B1, 59.2 nM.

On to `Fc1ccc2c(c1)nc(-c1cccnc1)n2C1CC1` [Example 17, 1-cyclopropyl-5-fluoro-2-(pyridin-3-yl)-1H-benzimidazole], for which the values for the IC50 at human CYP11B2 and against human CYP11B1 were 28 nM and 3980 nM, respectively.

Turning to `CCn1c(-c2cncc3ccccc23)nc2cc(F)ccc21` [Example 26, 4-(1-ethyl-5-fluoro-1H-benzimidazol-2-yl)isoquinoline], the half-maximal inhibitory concentration (IC50) against human CYP11B2 stood at 3.8 nM; at human CYP11B1, 304 nM.

On to `Fc1cc2nc(-c3cncc4ccccc34)n(C3CC3)c2cc1F` [Example 32, 4-(1-cyclopropyl-5,6-difluoro-1H-benzimidazol-2-yl)isoquinoline], for which the half-inhibitory concentration (IC50) turned out to be 0.1 nM at human CYP11B2 and 9.6 nM at human CYP11B1.

For the molecule `CC(C)(O)c1cncc(-c2nc3cc(F)c(F)cc3n2C2CC2)c1` [Example 38, 2-[5-(1-Cyclopropyl-5,6-difluoro-1H-benzimidazol-2-yl)pyridin-3-yl]propan-2-ol], the IC50 against human CYP11B2 was determined as 0.3 nM; on human CYP11B1, 42 nM.

Take `COC(C)(C)c1cncc(-c2nc3cc(F)c(F)cc3n2C2CC2)c1` [Example 39, 1-cyclopropyl-5,6-difluoro-2-[5-(2-methoxypropan-2-yl)pyridin-3-yl]-1H-benzimidazole]: the IC50 on human CYP11B2 worked out at 0.3 nM; at human CYP11B1, 3.4 nM.

`COC(C)(C)c1cncc(-c2nc3ccc(F)cc3n2C2CC2)c1` [Example 51, 1-cyclopropyl-6-fluoro-2-[5-(2-methoxypropan-2-yl)pyridin-3-yl]-1H-benzimidazole]: the IC50 against human CYP11B2 came out at 0.2 nM; at human CYP11B1, 4.7 nM.

Take `N#Cc1ccc2nc(-c3cccnc3)n(C3CC3)c2c1` [Example 75, 1-cyclopropyl-2-(pyridin-3-yl)-1H-benzo[d]imidazole-6-carbonitrile]: the IC50 amounted to 1.23 nM against human CYP11B2 and 374 nM against human CYP11B1.

As to `COc1cncc(-c2nc3ccc(C#N)cc3n2C2CC2)c1` [Example 76, 1-cyclopropyl-2-(5-methoxypyridin-3-yl)-1H-benzimidazole-6-carbonitrile], the IC50 came to 0.422 nM against human CYP11B2 and 1750 nM against human CYP11B1.

As for `Cn1c(-c2cccnc2)nc2ccc(C#N)cc21` [Example 99, 1-methyl-2-(pyridin-3-yl)-1H-benzimidazole-6-carbonitrile], the values for the IC50 against human CYP11B2 and on human CYP11B1 were 0.316 nM and 98 nM, respectively.

For `Fc1cncc(-c2nc3cc(F)c(Cl)cc3n2C2CC2)c1` [Example 129, 6-chloro-1-cyclopropyl-5-fluoro-2-(5-fluoropyridin-3-yl)-1H-benzimidazole], the IC50 against human CYP11B2 is 0.81 nM; against human CYP11B1, 161 nM.

With `Fc1cc2nc(-c3cncc4ccccc34)n(C3CC3)c2cc1Cl` [Example 131, 4-(6-chloro-1-cyclopropyl-5-fluoro-1H-benzimidazol-2-yl)isoquinoline], the IC50 stood at 0.126 nM on human CYP11B2 and 122 nM on human CYP11B1.

Regarding `Fc1cc2nc(-c3cccnc3)n(C3CC3)c2cc1Cl` [Example 132, 6-chloro-1-cyclopropyl-5-fluoro-2-(pyridin-3-yl)-1H-benzimidazole], the results for the IC50 on human CYP11B2 and against human CYP11B1 were 0.597 nM and 10000 nM, respectively.

In the case of `Cc1cncc(-c2nc3cc(F)c(Cl)cc3n2C2CC2)c1` [Example 135, 6-chloro-1-cyclopropyl-5-fluoro-2-(5-methylpyridin-3-yl)-1H-benzimidazole], the IC50 against human CYP11B2 came out at 0.226 nM; on human CYP11B1, 602 nM.

As to `Fc1cncc(-c2nc3ccc(Br)cc3n2C2CC2)c1` [Example 172, 6-bromo-1-cyclopropyl-2-(5-fluoropyridin-3-yl)-1H-benzimidazole], the IC50 turned out to be 3.55 nM at human CYP11B2 and 946 nM against human CYP11B1.

Turning to `Cc1cncc(-c2nc3cc(F)c(F)cc3n2C)c1` [Example 212, 5,6-difluoro-1-methyl-2-(5-methylpyridin-3-yl)-1H-benzimidazole], the figures for the IC50 at human CYP11B2 and against human CYP11B1 were 0.585 nM and 149 nM, respectively.

As to `COc1c(C)cncc1-c1nc2cc(F)c(F)cc2n1C1CC1` [Example 226, 1-cyclopropyl-5,6-difluoro-2-(4-methoxy-5-methylpyridin-3-yl)-1H-benzimidazole], the IC50 against human CYP11B2 is 1.12 nM; on human CYP11B1 it was 790 nM.

`COc1cncc(-c2nc3ccc(Cl)cc3n2C)c1` [Example 232, 6-chloro-2-(5-methoxypyridin-3-yl)-1-methyl-1H-benzimidazole]: the IC50 amounted to 0.2 nM at human CYP11B2 and 162 nM on human CYP11B1.

As for `Cn1c(-c2cccnc2)nc2ccc(Cl)cc21` [Example 233, 6-chloro-1-methyl-2-(pyridin-3-yl)-1H-benzimidazole], the values for the IC50 against human CYP11B2 and against human CYP11B1 were 1.15 nM and 270 nM, respectively.

Regarding `Clc1ccc2nc(-c3cccnc3)n(C3CC3)c2c1` [Example 250, 6-chloro-1-cyclopropyl-2-(pyridin-3-yl)-1H-benzimidazole], the half-maximal inhibitory concentration (IC50) turned out to be 1.59 nM on human CYP11B2 and 425 nM against human CYP11B1.

For the molecule `Cn1c(-c2cncc3ccccc23)nc2cc(F)cc(F)c21` [Example 256, 4-(5,7-difluoro-1-methyl-1H-benzimidazol-2-yl)isoquinoline], the values for the IC50 against human CYP11B2 and against human CYP11B1 were 0.346 nM and 490 nM, respectively.

Turning to `Cn1c(-c2cncc3ccccc23)nc2ccc(F)c(F)c21` [Example 267], the figures for the IC50 at human CYP11B2 and on human CYP11B1 were 0.151 nM and 206 nM, respectively.

`Cc1cncc(-c2nc3ccc(F)c(F)c3n2C)c1C` [Example 268, 2-(4,5-dimethylpyridin-3-yl)-6,7-difluoro-1-methyl-1H-benzimidazole]: the values for the IC50 at human CYP11B2 and against human CYP11B1 were 0.234 nM and 117 nM, respectively.

The values above are taken from US9382226B2, “Aldosterone synthase inhibitors” (Merck Sharp & Dohme Corp., priority 2010, dated 2016).
